Experimental data reported in publication PMC5729930, “Bitopic fluorescent antagonists of the A2A adenosine receptor based on pyrazolo[4,3-e][1,2,4]triazolo[1,5-c]pyrimidin-5-amine functionalized congeners” (MedChemComm, 2017).

Target: 45 diverse receptors
Experiment: PDSP comprehensive off-target screen
Assay type: binding
Details: PDSP comprehensive screen at 45 targets
Procedure: . Off-target binding activities at 45 diverse receptors were determined by PDSP[25] for selected compounds: 6c and 13 (ESI ^†). […]; 1.92 μM, 5HT2B receptor. Thus, the primary amine precursor of the fluorescent conjugates 10–12 was not promiscuous in its interaction with other proteins, i.e. this chemical series is not associated with pan-assay interference compounds.[26]
Chinese hamster ovary (CHO) cells stably expressing the human A2AAR were cultured in Dulbecco's Modified Eagle Medium (Mediatech, Manassas, VA) supplemented with 10% fetal bovine serum, 100 units/ml penicillin, 100 µg/ml streptomycin and 2 µmol/ml glutamine. Cells were plated in 96-well plates in 100 µl medium. After 24 h, the medium was removed and cells were washed three times with 100 µl DMEM, containing 50 mM HEPES, pH 7.4. Cells were treated with antagonists (or medium for control) in the presence of rolipram (10 µM) and adenosine deaminase (3 units/ml) and 5 min later with agonist for 20 min. The reaction was terminated by removal of the supernatant, and cells were lysed upon the addition of 100 µl of lysis buffer (0.3% Tween-20). cAMP was measured using ALPHAScreen cAMP kits (PerkinElmer, Boston, MA) as instructed by the manufacturer.
Refer to: http://pdspdb.unc.edu for full list of comprehensive screen at 45 targets.
5HT2A serotonin receptor: […]

## N.Nc1nc2c(cnn2CCCc2ccc(OCc3ccc(S(=O)(=O)O)cc3)cc2)c2nc(-c3ccco3)nn12 [compound 13]
  Off-target interactions (Ki in radioligand binding inhibition < 10 µM): None detected
